Measurements taken from US12338223B2 (PURISYS LLC, priority 2019, dated 2025).
Values after ≈ are worked out from the molar mass of the structure shown.

Columns and labels:
[1] = Solubility of CBN in crystallization solvents (solvent screen); type: physicochemical; conditions: organic solvent or mixture, RT
CB1 receptor [2] = molecular target: T1, CB1 receptor (Homo sapiens, UniProt P21554); conditions: fold lower affinity than THC; cited from earlier work
CB1 receptor [3] = molecular target: T1, CB1 receptor; conditions: cited from earlier work
CB2 receptor = CB2 receptor (Homo sapiens, UniProt P34972); conditions: fold lower affinity than THC; cited from earlier work
Chain of CB2 receptor (P34972 whole entry): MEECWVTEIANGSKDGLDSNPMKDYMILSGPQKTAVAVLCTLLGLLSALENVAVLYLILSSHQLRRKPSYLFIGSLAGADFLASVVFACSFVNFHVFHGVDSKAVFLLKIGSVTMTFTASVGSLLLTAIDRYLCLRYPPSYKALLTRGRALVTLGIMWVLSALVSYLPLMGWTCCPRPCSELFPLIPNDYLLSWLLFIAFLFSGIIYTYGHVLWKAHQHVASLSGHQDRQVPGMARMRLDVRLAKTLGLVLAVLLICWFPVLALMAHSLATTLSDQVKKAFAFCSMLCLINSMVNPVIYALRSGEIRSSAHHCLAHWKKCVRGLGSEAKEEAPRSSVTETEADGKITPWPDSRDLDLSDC

T1 sequence (P21554 whole entry): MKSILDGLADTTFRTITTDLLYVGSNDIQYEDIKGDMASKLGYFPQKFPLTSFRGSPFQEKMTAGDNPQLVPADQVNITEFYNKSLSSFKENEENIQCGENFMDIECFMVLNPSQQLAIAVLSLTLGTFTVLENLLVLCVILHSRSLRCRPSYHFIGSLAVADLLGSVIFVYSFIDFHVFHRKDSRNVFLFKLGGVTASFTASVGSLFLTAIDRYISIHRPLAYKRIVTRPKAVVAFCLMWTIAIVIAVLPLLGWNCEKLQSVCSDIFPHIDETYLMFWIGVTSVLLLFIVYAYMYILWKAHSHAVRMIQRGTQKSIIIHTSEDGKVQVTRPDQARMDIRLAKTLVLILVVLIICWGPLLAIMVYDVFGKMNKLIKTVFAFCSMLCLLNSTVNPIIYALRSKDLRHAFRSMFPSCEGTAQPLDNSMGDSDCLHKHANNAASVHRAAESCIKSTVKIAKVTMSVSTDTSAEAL

Structure (SMILES): CCCCCc1cc(O)c2c(c1)OC(C)(C)c1ccc(C)cc1-2 [CBN, cannabinol]
- solubility ([1]; solvent Iso-Octane): 24.9 mg/mL (≈ 80.2 mM)
- solubility ([1]; solvent n-Heptane): 33.4 mg/mL (≈ 108 mM)
- Affinity lower relative to THC (CB1 receptor [2]): 7- to 8 fold
- Type of activity at CB1 receptors (CB1 receptor [3]): partial agonist
- Affinity lower relative to THC (CB2 receptor): about 3 fold
